Target: T1, recombinant human M1 receptor (Homo sapiens, UniProt P11229)
T1 sequence (P11229 1-460): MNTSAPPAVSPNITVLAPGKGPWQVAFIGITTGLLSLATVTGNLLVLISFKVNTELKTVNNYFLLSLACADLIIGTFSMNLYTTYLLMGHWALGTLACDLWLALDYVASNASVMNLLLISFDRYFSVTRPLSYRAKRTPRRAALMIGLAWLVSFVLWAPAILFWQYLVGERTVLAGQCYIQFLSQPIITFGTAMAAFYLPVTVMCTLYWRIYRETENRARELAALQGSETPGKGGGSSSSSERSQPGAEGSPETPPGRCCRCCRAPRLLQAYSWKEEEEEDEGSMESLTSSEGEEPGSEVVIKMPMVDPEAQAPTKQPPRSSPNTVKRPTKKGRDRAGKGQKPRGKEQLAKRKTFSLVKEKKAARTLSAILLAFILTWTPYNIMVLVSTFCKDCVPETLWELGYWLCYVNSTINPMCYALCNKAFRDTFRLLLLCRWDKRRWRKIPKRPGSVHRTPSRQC
Assay: Inhibition of carbacol-induced Ca2+ mobilization in CHO-M1 cells
Type: cell-based
Settings: for inhibition of carbacol induced M1 receptor activities: compound at 10 μM

Compound | inhibition of carbacol induced M1 receptor activities (CHO-M1 cells) | also measured
scotanamine C [compound 3] | – | IC50 (read-out: IC50, inhibitory activity against M1 receptor): 7.8 µM
NCCCCNC(=O)/C=C/c1ccc(O)c(O)c1 [compound 6, cafeoylputrescine] | 35-40% | –
O=C(O)/C=C/c1ccc(O)c(O)c1 [caffeic acid, reference compound] | – | activity against M1 receptor (concentrations up to 10 μM, CHO-M1 cells): did not show any activity
scotanamine A [compound 1] | 35-40% | –
